# Measurements from ChEMBL document CHEMBL1127793 (J Med Chem, 1994).
# Activity calls are given as the source filed them. No cut-off for these calls is given here.
# Legend:
# Homo sapiens [1] = organism: Homo sapiens; test: Tested for inhibitory activity against LTB4 induced up-regulation of CD11b on human neutrophils; type: functional
# Cavia porcellus = organism: Cavia porcellus; test: Tested for the inhibitory activity against neutrophil infiltration in response to LTB4 in guinea pig; type: functional
# [2] = biological target: T1, Prostaglandin G/H synthase 2 (Ovis aries) (UniProt P79208); test: Tested for inhibition of the Prostaglandin G/H synthase at 10 uM conc.; No inhibition
# T1 sequence (whole entry): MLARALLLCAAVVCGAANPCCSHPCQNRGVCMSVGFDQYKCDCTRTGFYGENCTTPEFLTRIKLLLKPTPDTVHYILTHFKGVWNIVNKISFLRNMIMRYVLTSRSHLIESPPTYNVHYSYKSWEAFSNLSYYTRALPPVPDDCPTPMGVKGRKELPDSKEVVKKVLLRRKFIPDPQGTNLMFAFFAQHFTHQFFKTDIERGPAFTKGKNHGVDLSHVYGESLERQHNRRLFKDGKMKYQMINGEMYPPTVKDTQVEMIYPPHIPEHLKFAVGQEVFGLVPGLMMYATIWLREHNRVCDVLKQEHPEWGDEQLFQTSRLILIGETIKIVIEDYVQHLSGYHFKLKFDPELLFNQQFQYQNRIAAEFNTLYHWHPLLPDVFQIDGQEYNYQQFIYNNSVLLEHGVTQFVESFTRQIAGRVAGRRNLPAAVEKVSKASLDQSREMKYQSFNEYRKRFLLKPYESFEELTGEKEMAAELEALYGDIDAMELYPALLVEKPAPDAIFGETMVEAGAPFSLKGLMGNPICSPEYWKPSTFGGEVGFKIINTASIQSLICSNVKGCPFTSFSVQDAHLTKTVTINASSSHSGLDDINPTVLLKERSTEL
# [3] = biological target: Leukotriene B4 receptor 1 (Mus musculus, UniProt O88855); test: Tested for antagonistic activity in mouse spleen membrane against LTB4 receptor; type: functional, cell membranes
# Mus musculus = test: Oral administration of compound in 0.5% methyl cellulose inhibits the LTB4-induced response; type: functional
# Homo sapiens [4] = organism: Homo sapiens; test: Tested for inhibitory activity against LTB4 induced chemotaxis of human neutrophils; type: functional
# Sequence of Leukotriene B4 receptor 1 (O88855 whole entry): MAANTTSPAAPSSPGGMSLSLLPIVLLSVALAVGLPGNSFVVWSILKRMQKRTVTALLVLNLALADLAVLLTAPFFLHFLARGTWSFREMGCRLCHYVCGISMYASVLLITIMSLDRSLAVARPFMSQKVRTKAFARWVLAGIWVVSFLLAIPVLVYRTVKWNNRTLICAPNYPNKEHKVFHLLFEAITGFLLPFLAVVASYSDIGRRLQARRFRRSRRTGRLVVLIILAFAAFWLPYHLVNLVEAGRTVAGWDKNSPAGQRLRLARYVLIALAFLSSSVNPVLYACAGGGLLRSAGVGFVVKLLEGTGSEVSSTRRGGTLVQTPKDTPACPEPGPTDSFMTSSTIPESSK
structure (smiles),measurement,setting,value
O=C(O)C1(c2ccc3c(c2)OC[C@H](Cc2ccc(-c4ccccc4)cc2)[C@H]3O)CCCC1,IC50,Homo sapiens [1],430 nM
same,ED50,Cavia porcellus,0.26 mg/kg
same,inhibition,[2],inactive
same,IC50,[3],30.3 nM
same,ED50,Mus musculus,4.2 mg/kg
same,IC50,Homo sapiens [4],5.2 nM
